Data taken from PubChem BioAssay AID330 (DTP/NCI, 2004).
Values joined by “and” are separate entries in the source; they are usually repeats but may differ in a detail not shown here. Identical values can stand only once. Inconclusive results and toxic doses are left out.

Test system: P388 leukemia ip, CD2F1 mice, survival T/C
Experiment: NCI In Vivo Anticancer Drug Screen. Data for tumor model P388 Leukemia (intraperitoneal) in CD2F1 (CDF1) mice
Details: endpoint: median survival time, higher = longer survival
Summary of the method: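 Mice carrying the transplanted tumor received test compound or vehicle. Survival was recorded in each group, and the value is the treated-group measurement divided by that of the vehicle-treated control group.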

[1] = dose: 3.12 mg/kg/injection, schedule: Q01DX009 (ip), vehicle: saline
[2] = dose: 6.25 mg/kg/injection, schedule: Q01DX009 (ip), vehicle: saline
[3] = dose: 12.5 mg/kg/injection, schedule: Q01DX009 (ip), vehicle: saline
[4] = dose: 50.0 mg/kg/injection, schedule: Q01DX005 (ip), vehicle: saline with Tween-80
[5] = dose: 100.0 mg/kg/injection, schedule: Q01DX005 (ip), vehicle: saline with Tween-80
[6] = dose: 200.0 mg/kg/injection, schedule: Q01DX005 (ip), vehicle: saline with Tween-80
[7] = dose: 100.0 mg/kg/injection, schedule: Q01DX001 (ip), vehicle: Klucel (hydroxypropylcellulose) (HPC)
[8] = dose: 200.0 mg/kg/injection, schedule: Q01DX001 (ip), vehicle: Klucel (hydroxypropylcellulose) (HPC)
[9] = dose: 400.0 mg/kg/injection, schedule: Q01DX001 (ip), vehicle: Klucel (hydroxypropylcellulose) (HPC)
[10] = dose: 50.0 mg/kg/injection, schedule: Q01DX005 (ip), vehicle: Klucel (hydroxypropylcellulose) (HPC)
[11] = dose: 100.0 mg/kg/injection, schedule: Q01DX005 (ip), vehicle: Klucel (hydroxypropylcellulose) (HPC)
[12] = dose: 200.0 mg/kg/injection, schedule: Q01DX005 (ip), vehicle: Klucel (hydroxypropylcellulose) (HPC)
[13] = dose: 60.0 mg/kg/injection, schedule: Q01DX005 (ip), vehicle: saline with Tween-80
[14] = dose: 120.0 mg/kg/injection, schedule: Q01DX005 (ip), vehicle: saline with Tween-80
[15] = dose: 240.0 mg/kg/injection, schedule: Q01DX005 (ip), vehicle: saline with Tween-80
[16] = dose: 50.0 mg/kg/injection, schedule: Q04DX003 (ip), vehicle: saline with Tween-80
[17] = dose: 60.0 mg/kg/injection, schedule: Q01DX005 (ip), vehicle: Klucel (hydroxypropylcellulose) (HPC)
[18] = dose: 25.0 mg/kg/injection, schedule: Q01DX009 (ip), vehicle: saline with Tween-80
[19] = dose: 50.0 mg/kg/injection, schedule: Q01DX009 (ip), vehicle: saline with Tween-80
[20] = dose: 6.25 mg/kg/injection, schedule: Q01DX009 (ip), vehicle: saline with Tween-80

N=C(N)c1ccc2cc(/C=C/c3cc4ccc(C(=N)N)cc4o3)oc2c1
T/C (dose: 100.0 mg/kg/injection, schedule: Q04DX003 (ip), vehicle: suspension in saline): 112 % of control
T/C (dose: 200.0 mg/kg/injection, schedule: Q04DX003 (ip), vehicle: suspension in saline): 120 % of control

COc1cccc2c1C(=O)c1c(O)c3c(c(O)c1C2=O)CC(O)(C(C)=O)CC3OC1CC(N)C(OC2CC(N)C(O)C(C)O2)C(C)O1 (stereo not drawn)
T/C (dose: 0.39 mg/kg/injection, schedule: Q01DX009 (ip), vehicle: water): 116 % of control
T/C (dose: 1.56 mg/kg/injection, schedule: Q01DX009 (ip), vehicle: water): 150 % of control
T/C (dose: 3.13 mg/kg/injection, schedule: Q01DX009 (ip), vehicle: water): 161 % of control and 196 % of control
T/C (dose: 3.13 mg/kg/injection, schedule: Q04DX003 (ip), vehicle: water): 112 % of control
T/C (dose: 6.25 mg/kg/injection, schedule: Q01DX009 (ip), vehicle: water): 113 % of control and 116 % of control
T/C (dose: 6.25 mg/kg/injection, schedule: Q04DX003 (ip), vehicle: water): 103 % of control
T/C (dose: 12.5 mg/kg/injection, schedule: Q01DX009 (ip), vehicle: water): 114 % of control and 86 % of control
T/C (dose: 12.5 mg/kg/injection, schedule: Q04DX003 (ip), vehicle: water): 103 % of control
T/C (dose: 25.0 mg/kg/injection, schedule: Q04DX003 (ip), vehicle: water): 121 % of control
T/C (dose: 50.0 mg/kg/injection, schedule: Q04DX003 (ip), vehicle: water): 112 % of control

O=C(O)C1C(C(=O)O)C2(Cl)C(Cl)=C(Cl)C1(Cl)C2(Cl)Cl.[Cu+2] (stereo not drawn)
T/C (dose: 50.0 mg/kg/injection, schedule: Q01DX001 (ip), vehicle: saline sonified): 104 % of control
T/C (dose: 100.0 mg/kg/injection, schedule: Q01DX001 (ip), vehicle: saline sonified): 118 % of control

O=C(O)CN1C(=O)C=CC1=O
T/C [1]: 90 % of control
T/C [2]: 101 % of control
T/C [3]: 101 % of control and 86 % of control

CCn1c2ccc([N+](=O)[O-])cc2c2c([N+](=O)[O-])c(-n3cccc3)ccc21
T/C [4]: 95 % of control
T/C [5]: 90 % of control
T/C [6]: 88 % of control

C=CC1CN2CCC1CC2C(O)c1ccnc2ccc(OC)cc12 (stereo not drawn)
T/C [4]: 97 % of control
T/C (dose: 50.0 mg/kg/injection, schedule: Q04DX003 (ip), vehicle: alcohol): 115 % of control
T/C [5]: 104 % of control
T/C (dose: 100.0 mg/kg/injection, schedule: Q04DX003 (ip), vehicle: alcohol): 105 % of control
T/C (dose: 200.0 mg/kg/injection, schedule: Q04DX003 (ip), vehicle: alcohol): 115 % of control

CC(=O)Nc1ccc(S(=O)(=O)NC(CCC(N)=O)C(=O)O)cc1 (stereo not drawn)
T/C [7]: 95 % of control
T/C [8]: 100 % of control
T/C [9]: 92 % of control

O=c1c(N=Nc2ccc(Br)cc2)c(O)n(-c2ccccc2Cl)c(=S)n1-c1ccccc1
T/C (dose: 50.0 mg/kg/injection, schedule: Q01DX001 (ip), vehicle: Klucel (hydroxypropylcellulose) (HPC)): 94 % of control
T/C [7]: 98 % of control
T/C [8]: 94 % of control

COc1c2occc2c(CSC(=N)N)c2ccc(=O)oc12
T/C (dose: 25.0 mg/kg/injection, schedule: Q01DX001 (ip), vehicle: saline): 105 % of control
T/C (dose: 50.0 mg/kg/injection, schedule: Q01DX001 (ip), vehicle: saline): 100 % of control
T/C (dose: 100.0 mg/kg/injection, schedule: Q01DX001 (ip), vehicle: saline): 100 % of control

O=S1(=O)N2CN3CN(C2)CN1C3
T/C (dose: 6.25 mg/kg/injection, schedule: Q04DX003 (ip), vehicle: Klucel (hydroxypropylcellulose) (HPC)): 106 % of control
T/C (dose: 12.5 mg/kg/injection, schedule: Q04DX003 (ip), vehicle: Klucel (hydroxypropylcellulose) (HPC)): 104 % of control
T/C (dose: 25.0 mg/kg/injection, schedule: Q04DX003 (ip), vehicle: Klucel (hydroxypropylcellulose) (HPC)): 111 % of control
T/C (dose: 50.0 mg/kg/injection, schedule: Q04DX003 (ip), vehicle: Klucel (hydroxypropylcellulose) (HPC)): 106 % of control

CC1N[P+]2(Nc3ccccc3O2)OC1=O (stereo not drawn)
T/C [7]: 103 % of control
T/C [8]: 103 % of control
T/C [9]: 106 % of control

c1ccc(-c2[nH]nc3nc4c(nc23)CCCC4)cc1
T/C [10]: 89 % of control
T/C [11]: 99 % of control
T/C [12]: 92 % of control

Cc1ccc2c(c1)-c1oc(=O)c(C(N)=O)cc1C(C)O2 (stereo not drawn)
T/C [13]: 92 % of control
T/C [14]: 89 % of control
T/C [15]: 87 % of control

COc1cc(C=Nc2cccc(Cl)c2)ccc1N(CCCl)CCCl
T/C (dose: 25.0 mg/kg/injection, schedule: Q04DX003 (ip), vehicle: saline with Tween-80): 172 % of control
T/C [16]: 181 % of control

COc1ccc2[nH]c3c(c(=O)n(C)c(=O)n3C)c2c1
T/C [10]: 92 % of control
T/C [11]: 93 % of control
T/C [12]: 92 % of control

CC(=O)OCc1c(-c2ccccc2)c(=O)c1=O
T/C (dose: 15.0 mg/kg/injection, schedule: Q01DX005 (ip), vehicle: saline with Tween-80): 100 % of control
T/C (dose: 30.0 mg/kg/injection, schedule: Q01DX005 (ip), vehicle: saline with Tween-80): 103 % of control
T/C [17]: 108 % of control
T/C [13]: 106 % of control

O=C(Nc1ccc(Cl)cc1)Nc1nnc(-c2cc([N+](=O)[O-])cc([N+](=O)[O-])c2)o1
T/C [13]: 98 % of control
T/C [14]: 92 % of control
T/C [15]: 86 % of control

O=NNc1ccc(Sc2ccc(NN=O)cn2)nc1
T/C [1]: 100 % of control
T/C [2]: 107 % of control
T/C [3]: 114 % of control
T/C (dose: 50.0 mg/kg/injection, schedule: Q01DX009 (ip), vehicle: saline): 122 % of control

COc1ccc(CCNCC(O)CO/N=C(\C)c2ccc(N(C)C)cc2)cc1OC (stereo not drawn)
T/C [17]: 104 % of control
T/C (dose: 120.0 mg/kg/injection, schedule: Q01DX005 (ip), vehicle: Klucel (hydroxypropylcellulose) (HPC)): 101 % of control
T/C (dose: 240.0 mg/kg/injection, schedule: Q01DX005 (ip), vehicle: Klucel (hydroxypropylcellulose) (HPC)): 97 % of control

O=NN(CCCl)C(=O)N[C@H]1CCCC[C@@H]1Cl
T/C [18]: 250 % of control
T/C (dose: 33.0 mg/kg/injection, schedule: Q04DX003 (ip), vehicle: saline with Tween-80): 200 % of control
T/C [19]: 109 % of control
T/C [16]: 300 % of control
T/C (dose: 100.0 mg/kg/injection, schedule: Q04DX003 (ip), vehicle: saline with Tween-80): 90 % of control

OC(c1cc(-c2cccc(Cl)c2)nc2ccccc12)C1CCCCN1 (stereo not drawn)
T/C [10]: 112 % of control
T/C [11]: 107 % of control

O=P(c1ccccc1)(c1ccccc1)c1ccccc1.O=P(c1ccccc1)(c1ccccc1)c1ccccc1.O=P(c1ccccc1)(c1ccccc1)c1ccccc1.O=P(c1ccccc1)(c1ccccc1)c1ccccc1.[O-][Cl+3]([O-])([O-])O.[O]=[U+2]=[O]
T/C [20]: 88 % of control
T/C (dose: 12.5 mg/kg/injection, schedule: Q01DX009 (ip), vehicle: saline with Tween-80): 90 % of control

Clc1ccc(-c2n[se]c(-c3ccc(Cl)cc3)n2)cc1
T/C [18]: 87 % of control
T/C [19]: 89 % of control

NC(=O)C1c2ccccc2C=Cc2ccccc21
T/C [4]: 93 % of control
T/C [5]: 90 % of control
T/C [6]: 93 % of control

CC(C(=O)c1ccccc1)c1nc2nnc(N)n2[nH]c1=O (stereo not drawn)
T/C (dose: 60.0 mg/kg/injection, schedule: Q01DX005 (ip), vehicle: saline): 95 % of control
T/C (dose: 120.0 mg/kg/injection, schedule: Q01DX005 (ip), vehicle: saline): 100 % of control
T/C (dose: 240.0 mg/kg/injection, schedule: Q01DX005 (ip), vehicle: saline): 95 % of control

CCN(CC)C1=C(c2ccccc2)C(=O)C1(C#N)C(C)(C)C (stereo not drawn)
T/C [10]: 98 % of control
T/C [11]: 93 % of control
T/C [12]: 93 % of control

O=C(O)C1CC1.[Ag]
T/C (dose: 3.12 mg/kg/injection, schedule: Q01DX009 (ip), vehicle: saline with Tween-80): 153 % of control
T/C [20]: 97 % of control
